The numbers were not newly measured in paper PMC2962921 (Chembiochem : a European journal of chemical biology, 2008), which cites them from elsewhere.

Like-named read-outs stand apart in the source and are kept apart here.

The data set concerns the target Gαi1*GDP.

For the sequence DKLYWWEFL, where the note is “binding to heterotrimeric inhibitory G protein Gαi1*GDP”, the Kd is 200 nM.

With MSQTKRLDDQLYWWEYL [R6A], the Kd (R6A peptide, competitor in the equilibrium competition) was 60 nM.
